Patent publication US6875743B1, “Cell adhesion inhibitors” (Biogen, Inc., priority 1996, dated 2005)
Numbered stars: 1 amine (or outer) side, 2 acyl side, 3 side chain; on linkers, the order of the positions; unused ones are H or OH. Square brackets hold non-standard residues; d marks the D form. Peptide text beside a SMILES is read from it. * marks the point of attachment. 2‑MPUPA = 4-(N′-(2-methylphenyl)urea)phenylacetyl, Cc1ccccc1NC(=O)Nc1ccc(CC(=O)*)cc1; X4 = COc1nc(CC(=O)[*:2])ccc1N[*:1]; Quinaldoyl = O=C(c1ccc2ccccc2n1)*; NH(2-Me-phenyl) = Cc1ccccc1N*; Tic = O=C(O)[CH]1Cc2ccccc2CN1; Cha = N[CH](CC1CCCCC1)C(=O)O; PhAc = O=C(Cc1ccccc1)*; Boc = CC(C)(C)OC(=O)*; Aib = CC(C)(N)C(=O)O; CO = O=C([*:1])[*:2]; Bz = O=C(c1ccccc1)*; Ahx = NCCCCCC(=O)O

B1: Compound 153 (peptide)
peptide: Bz-FLDV-OH
SMILES: CC(C)C[C@H](NC(=O)[C@H](Cc1ccccc1)NC(=O)c1ccccc1)C(=O)N[C@@H](CC(=O)O)C(=O)N[C@H](C(=O)O)C(C)C
B2: Compound 339 (peptide)
peptide: {2‑MPUPA}-VLPD-OH
SMILES: Cc1ccccc1NC(=O)Nc1ccc(CC(=O)N[C@H](C(=O)N[C@@H](CC(C)C)C(=O)N2CCC[C@H]2C(=O)N[C@@H](CC(=O)O)C(=O)O)C(C)C)cc1
B3: Compound 337 (peptide)
peptide: {2‑MPUPA}-LDVPS-OH
B4: Compound 341 (peptide)
peptide: {2‑MPUPA}-LPVD-OH
SMILES: Cc1ccccc1NC(=O)Nc1ccc(CC(=O)N[C@@H](CC(C)C)C(=O)N2CCC[C@H]2C(=O)N[C@H](C(=O)N[C@@H](CC(=O)O)C(=O)O)C(C)C)cc1
B5: Compound 338 (peptide)
peptide: {2‑MPUPA}-LDVPST-OH
SMILES: Cc1ccccc1NC(=O)Nc1ccc(CC(=O)N[C@@H](CC(C)C)C(=O)N[C@@H](CC(=O)O)C(=O)N[C@H](C(=O)N2CCC[C@H]2C(=O)N[C@@H](CO)C(=O)N[C@H](C(=O)O)[C@@H](C)O)C(C)C)cc1
B6: Compound 152 (peptide)
peptide: Ac-FLDV-OH
B7: Compound 2 (peptide)
peptide: {3‑methoxy‑4‑(N'-phenylurea)phenylacetyl}-MDVP-OH
B8: Compound 315 (peptide)
peptide: {2‑MPUPA}-MDVP-OH
SMILES: CSCC[C@H](NC(=O)Cc1ccc(NC(=O)Nc2ccccc2C)cc1)C(=O)N[C@@H](CC(=O)O)C(=O)N[C@H](C(=O)N1CCC[C@H]1C(=O)O)C(C)C
B9: Compound 168 (peptide)
peptide: Quinaldoyl-LDVM-OMe
SMILES: COC(=O)[C@H](CCSC)NC(=O)[C@@H](NC(=O)[C@H](CC(=O)O)NC(=O)[C@H](CC(C)C)NC(=O)c1ccc2ccccc2n1)C(C)C
B10: Compound 167 (peptide)
peptide: Boc-LDVM-OMe
SMILES: COC(=O)[C@H](CCSC)NC(=O)[C@@H](NC(=O)[C@H](CC(=O)O)NC(=O)[C@H](CC(C)C)NC(=O)OC(C)(C)C)C(C)C
B11: Compound 202 (peptide)
peptide: {2‑MPUPA}-K(Ahx)DVP-OH
SMILES: Cc1ccccc1NC(=O)Nc1ccc(CC(=O)N[C@@H](CCCCNC(=O)CCCCCN)C(=O)N[C@@H](CC(=O)O)C(=O)N[C@H](C(=O)N2CCC[C@H]2C(=O)O)C(C)C)cc1
B12: Compound 186 (peptide)
peptide: Quinaldoyl-LDVM-OH
SMILES: CSCC[C@H](NC(=O)[C@@H](NC(=O)[C@H](CC(=O)O)NC(=O)[C@H](CC(C)C)NC(=O)c1ccc2ccccc2n1)C(C)C)C(=O)O
B13: Compound 146 (peptide)
peptide: {4‑(N'-2-hydroxyphenylurea)phenylacetyl}-MDVP-OH

Molecular target: T1, α4β1 integrin, very late antigen-4 (VLA-4) (UniProt P13612 34-1032; P05556 21-798, limits assumed)
T1 construct: whole, on cells; also called CD49d/CD29
Experiment: inhibition of Ramos cell adhesion to BSA-CS1
Conditions: not given
Method: Following labelling, the cells were washed twice in assay buffer (24 mM TRIS, 137 mM NaCl, 2.7 mM KCl, pH 7.4, containing 0.1% BSA and 2 mM glucose) to remove any cations originating from the culture medium. The cells were then resuspended in assay buffer to 4×10⁶ cells/mL and 2 mM MnCl_2 was added to upregulate VLA4 on the surface of the cells.
Immediately prior to running the assay, we removed the BSA blocking solution from the 96-well plates and washed the wells with 100 μL of assay buffer. We then added to each well 25 μL of test cell adhesion inhibitory compound at 2× the final concentration and 25 μL of the labelled Ramos cells. […] Each concentration of compound was tested in triplicate. The compound and cells are allowed to incubate for 30 minutes at room temperature.
Percent binding is calculated by the formula: […]

T1 sequence (P13612 34-1032 limits assumed, chain 1 of 2): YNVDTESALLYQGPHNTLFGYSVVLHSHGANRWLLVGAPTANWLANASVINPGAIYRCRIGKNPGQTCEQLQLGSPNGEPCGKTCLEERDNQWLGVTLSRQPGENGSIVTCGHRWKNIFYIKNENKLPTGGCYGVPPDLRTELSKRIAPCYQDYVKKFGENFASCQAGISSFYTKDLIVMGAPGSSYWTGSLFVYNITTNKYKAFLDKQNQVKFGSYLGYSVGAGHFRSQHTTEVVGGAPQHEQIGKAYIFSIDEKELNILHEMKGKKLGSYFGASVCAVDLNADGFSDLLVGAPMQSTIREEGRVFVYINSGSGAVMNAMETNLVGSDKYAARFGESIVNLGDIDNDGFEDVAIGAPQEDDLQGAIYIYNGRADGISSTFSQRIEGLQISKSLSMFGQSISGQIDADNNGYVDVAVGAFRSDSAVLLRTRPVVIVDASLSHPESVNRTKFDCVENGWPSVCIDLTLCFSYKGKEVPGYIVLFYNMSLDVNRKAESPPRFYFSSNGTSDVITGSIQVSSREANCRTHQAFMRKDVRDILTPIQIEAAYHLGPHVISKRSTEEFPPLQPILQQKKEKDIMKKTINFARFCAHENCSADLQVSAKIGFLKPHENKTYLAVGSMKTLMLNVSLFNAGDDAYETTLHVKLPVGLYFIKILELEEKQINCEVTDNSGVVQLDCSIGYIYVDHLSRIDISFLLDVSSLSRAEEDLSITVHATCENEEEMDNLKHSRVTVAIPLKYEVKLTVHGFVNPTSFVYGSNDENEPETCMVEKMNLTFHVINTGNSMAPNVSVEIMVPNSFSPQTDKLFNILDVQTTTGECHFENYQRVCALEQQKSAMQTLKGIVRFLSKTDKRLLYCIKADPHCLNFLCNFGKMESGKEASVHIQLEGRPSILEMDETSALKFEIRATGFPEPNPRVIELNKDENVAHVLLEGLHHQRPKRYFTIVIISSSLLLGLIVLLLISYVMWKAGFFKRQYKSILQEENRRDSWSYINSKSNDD
T1 sequence (P05556 21-798 limits assumed, chain 2 of 2): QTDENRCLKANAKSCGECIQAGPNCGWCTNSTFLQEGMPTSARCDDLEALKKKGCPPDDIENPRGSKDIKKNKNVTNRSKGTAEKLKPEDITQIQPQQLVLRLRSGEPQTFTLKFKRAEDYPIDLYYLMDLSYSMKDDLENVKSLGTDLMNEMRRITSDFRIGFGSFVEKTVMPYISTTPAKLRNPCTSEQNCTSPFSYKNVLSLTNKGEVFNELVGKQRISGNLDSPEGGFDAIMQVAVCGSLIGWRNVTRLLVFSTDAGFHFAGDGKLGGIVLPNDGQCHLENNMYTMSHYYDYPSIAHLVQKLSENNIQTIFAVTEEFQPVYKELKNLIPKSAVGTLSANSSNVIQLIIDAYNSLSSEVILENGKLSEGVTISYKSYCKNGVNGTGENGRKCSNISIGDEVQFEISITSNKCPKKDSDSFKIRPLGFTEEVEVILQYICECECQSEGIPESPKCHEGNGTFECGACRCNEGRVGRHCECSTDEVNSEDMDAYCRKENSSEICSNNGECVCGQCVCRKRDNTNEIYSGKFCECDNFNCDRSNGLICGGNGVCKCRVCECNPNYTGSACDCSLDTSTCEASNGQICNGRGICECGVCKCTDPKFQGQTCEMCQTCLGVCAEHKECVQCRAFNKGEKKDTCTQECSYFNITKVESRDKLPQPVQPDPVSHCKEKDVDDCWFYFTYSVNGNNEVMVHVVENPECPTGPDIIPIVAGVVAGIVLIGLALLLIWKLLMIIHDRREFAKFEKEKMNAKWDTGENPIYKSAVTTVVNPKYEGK

B1 and B2 cannot be ordered by IC50: over 10 µM for the first, over 10 µM for the second.

First: B3
Second: B4
The IC50 of the first is lower: under 0.05 µM for the first, over 10 µM for the second. The first is the more potent here.

First: B5
Second: B6
The IC50 of the first is lower: under 0.05 µM for the first, over 10 µM for the second.

B7 and B8 cannot be ordered by IC50: under 0.05 µM for the first, under 0.05 µM for the second.

Compared with B9, B10 is higher in IC50: 0.05 to 10 µM for the first, over 10 µM for the second. The first is the more potent here.

First: B11
Second: B12
The IC50 of the first is lower: 0.05 to 10 µM for the first, over 10 µM for the second.

B13 was tested, and the IC50 was under 0.05 µM.

Molecular target: T2, VLA4 (Homo sapiens, UniProt P05556+P13612)
T2 construct: endogenous in cells; host or cells: Ramos cells
Experiment: Inhibition of VLA4-dependent adhesion to BSA-CS1
Assay type: cell-based
Conditions: binding of BCECF-labelled Ramos cells to BSA-CS1 coated wells, 2 mM MnCl2; read-out: IC50

T2 sequence (P13612 34-1032): as the sequence (P13612 34-1032 limits assumed, chain 1 of 2) above
T2 sequence (P05556 21-798): as the sequence (P05556 21-798 limits assumed, chain 2 of 2) above

`Cc1ccccc1NC(=O)Nc1ccc(CC(=O)N[C@@H](CC(C)C)C(=O)N[C@@H](CC(=O)O)C(=O)N[C@H](C(N)=O)[C@@H](C)O)cc1` [Compound 235] and `Cc1ccccc1NC(=O)Nc1ccc(CC(=O)N[C@@H](CC(C)C)C(=O)N[C@@H](CCC(=O)O)C(=O)N[C@H](C(N)=O)C(C)C)cc1` [Compound 311] cannot be ordered by IC50: under 0.05 µM for the first, under 0.05 µM for the second.

`CC(C)C[C@H](NC(=O)N1c2ccccc2CCc2ccccc21)C(=O)N[C@@H](CC(=O)O)C(=O)N[C@H](C(=O)O)C(C)C` [Compound 408] and `CC(C)C[C@H](NC(=O)c1ccc(-c2ccccn2)s1)C(=O)N[C@@H](CC(=O)O)C(=O)N[C@H](C(=O)O)C(C)C` [Compound 407] cannot be ordered by IC50: over 10 µM for the first, over 10 µM for the second.

`Cc1ccccc1NC(=O)Nc1ccc(CC(=O)N[C@@H](CCC(N)=O)C(=O)N[C@@H](CC(=O)O)C(=O)N[C@H](C(N)=O)C(C)C)cc1` [Compound 299] and `Cc1ccccc1NC(=O)Nc1ccc(CC(=O)N[C@@H](CCC(=O)O)C(=O)N[C@@H](CC(=O)O)C(=O)N[C@@H](CC(C)C)C(N)=O)cc1` [Compound 264] cannot be ordered by IC50: under 0.05 µM for the first, under 0.05 µM for the second.

`CC(C)C[C@H](NC(=O)c1cc2ccccc2cn1)C(=O)NC(Cc1nnn[nH]1)C(=O)N[C@H](C(=O)O)C(C)C` (some centres unmarked) [Compound 10] and `CC(C)C[C@H](NC(=O)c1cc2ccccc2cn1)C(=O)NC(CC(=O)NO)C(=O)N[C@H](C(=O)O)C(C)C` (some centres unmarked) [Compound 6] cannot be ordered by IC50: over 10 µM for the first, over 10 µM for the second.

`CCC(C)C(NC(=O)C(CC(=O)O)NC(=O)C(CC(C)C)NC(=O)C1CCc2ccccc2N1)C(=O)NC` (centres unmarked) [Compound 58] and `CCC(C)C(NC(=O)C(CC(=O)O)NC(=O)C(CC(C)C)NC(=O)c1ccc2ccccc2n1)C(=O)OC` (centres unmarked) [Compound 56] fall in the same range of IC50: 0.05 to 10 µM for the first, 0.05 to 10 µM for the second.

`Cc1ccccc1NC(=O)Nc1ccc(CC(=O)N[C@@H](CO)C(=O)N[C@@H](CC(=O)O)C(=O)N[C@H](CCC(=O)O)C(N)=O)cc1` [Compound 283] and `Cc1ccccc1NC(=O)Nc1ccc(CC(=O)N[C@@H](CCC(=O)O)C(=O)N[C@@H](CC(=O)O)C(=O)N[C@H](CC(C)C)C(N)=O)cc1` [Compound 266] cannot be ordered by IC50: under 0.05 µM for the first, under 0.05 µM for the second.

Compared with `Cc1ccccc1NC(=O)Nc1ccc(CC(=O)N2CCC[C@H]2C(=O)N[C@@H](CC(=O)O)C(=O)N[C@H](CC(C)C)C(=O)O)cc1` [Compound 411], `CNC(=O)[C@H](CCC(=O)O)NC(=O)[C@@H]1CCCN1C(=O)Cc1ccc(NC(=O)Nc2ccccc2C)cc1` [Compound 413] is higher in IC50: under 0.05 µM for the first, 0.05 to 10 µM for the second. The first is the more potent here.

`CC(C)C[C@H](NC(=O)c1ccc2ccccc2n1)C(=O)N[C@@H](CC(=O)O)C(=O)N[C@H](C(N)=O)C(C)C` [Compound 178] and `CC(C)C[C@H](NC(=O)c1c2c(nc3ccccc13)CCCC2)C(=O)N[C@@H](CC(=O)O)C(=O)N[C@H](C(=O)O)C(C)C` [Compound 391] cannot be ordered by IC50: over 10 µM for the first, over 10 µM for the second.

`Cc1ccccc1NC(=O)Nc1ccc(CC(=O)N[C@H](C(=O)N[C@@H](CC(=O)O)C(=O)N[C@@H](Cc2c[nH]c3ccccc23)C(N)=O)[C@@H](C)O)cc1` [Compound 261] and `Cc1ccccc1NC(=O)Nc1ccc(CC(=O)N[C@@H](CO)C(=O)N[C@@H](CC(=O)O)C(=O)N[C@@H](Cc2c[nH]c3ccccc23)C(N)=O)cc1` [Compound 284] cannot be ordered by IC50: under 0.05 µM for the first, under 0.05 µM for the second.

`CC(C)C(NC(=O)C(CC(=O)O)NC(=O)C(CC1CCCCC1)NC(=O)C1Cc2ccccc2CN1)C(=O)O` (centres unmarked) [Compound 86] (H-[Tic][Cha]DV-OH; configuration not given here) and `CC(C)CC(NC(=O)C1Cc2ccccc2CN1)C(=O)NC(CC(=O)O)C(=O)NC(C(=O)N1CCCC1C(=O)O)C(C)C` (centres unmarked) [Compound 33] (H-[Tic]LDVP-OH; configuration not given here) cannot be ordered by IC50: over 10 µM for the first, over 10 µM for the second.

First: CNC(=O)C(C)(C)NC(=O)[C@H](CC(=O)O)NC(=O)[C@H](CC(C)C)NC(=O)Cc1ccccc1 [Compound 351] (PhAc-Leu-Asp-[Aib]-NHMe)
Second: CNC(=O)[C@@H](NC(=O)[C@H](CC(=O)O)NC(=O)[C@H](CC(C)C)NC(=O)Cc1ccc(NC(=O)Nc2ccccc2)cc1)C(C)C [Compound 204]
The IC50 of the first is higher: over 10 µM for the first, 0.05 to 10 µM for the second. The second is the more potent here.

Going from `COc1nc(CC(=O)N[C@@H](CC(C)C)C(=O)N[C@@H](CC(=O)O)C(=O)N[C@H](C(=O)N2CCC[C@H]2C(=O)O)C(C)C)ccc1NC(=O)Nc1ccccc1C` [Compound 4] ({NH(2-Me-phenyl)-CO}-[X4]LDVP-OH) to `COC(=O)C1CCCN1C(=O)C(NC(=O)C(CC(=O)O)NC(=O)C(CC(C)C)NC(=O)CCc1ccc(O)cc1)C(C)C` (centres unmarked) [Compound 39], the IC50 rises from under 0.05 µM to over 10 µM.

`CSCC[C@H](NC(=O)Cc1ccc(NC(=O)Nc2ccccc2C)cc1)C(=O)N[C@@H](CC(=O)O)C(=O)N[C@H](CC(C)C)C(N)=O` [Compound 222] and `Cc1ccccc1NC(=O)Nc1ccc(CC(=O)N[C@@H](CCC(N)=O)C(=O)N[C@@H](CC(=O)O)C(=O)N[C@@H](CC(=O)O)C(N)=O)cc1` [Compound 297] cannot be ordered by IC50: under 0.05 µM for the first, under 0.05 µM for the second.

`CC(C)CC(NC(=O)CCCCc1ccccc1)C(=O)NC(CC(=O)O)C(=O)NCC1CCCCC1` (centres unmarked) [Compound 26] and `CCCCCCNC(=O)C(NC(=O)C(CC(=O)O)NC(=O)C(CC(C)C)NC(=O)CCc1ccc(O)cc1)C(C)C` (centres unmarked) [Compound 119] cannot be ordered by IC50: over 10 µM for the first, over 10 µM for the second.
